# From US20140336267A1, “UTILIZATION OF THE FUNCTION OF RARE SUGAR AS PROMOTER FOR THE MIGRATION OF GLUCOKINASE FROM NUCLEUS TO CYTOPLASM” (NATIONAL UNIVERSITY CORPORATION KAGAWA UNIVERSITY, priority 2006, published 2014)
# Assays:
# hepatocytes [1] = assay: Glycogen synthesis in cultured hepatocytes; type: cell-based, rat; settings: MEM culture medium containing 5 mM or 25 mM D-glucose
# Experimental: (§1) Cultured hepatocytes were incubated in an MEM culture medium containing 5 mM or 25 mM D-glucose with an action of promoting glucokinase transfer from nucleus to cytoplasm. Glucokinase transfer from nucleus to cytoplasm, glycogen synthesis and lactic acid generation were increased. Via glucose, glucokinase transfer from nucleus to cytoplasm occurs, which raises cytoplasmic glucokinase activity to possibly promote the sugar metabolism in liver. […] (FIGS. 4, 6, 7 and 8)
# glucokinase [2] = biological target: T1, glucokinase (Rattus norvegicus, UniProt P17712); assay: Hepatic glucokinase transfer from nucleus to cytoplasm after oral sugar given with D-glucose, Wistar rats (Example 3); type: in vivo; settings: Wistar rats starved overnight; 2 g/kg D-glucose oral alone; 30 minutes later
# T1 construct: stained by a fluorescence antibody method using an anti-glucokinase antibody; endogenous in cells; host or cells: primary culture of hepatocytes from male Wistar rats
# T1 sequence (P17712 1-465 isoform P17712-3): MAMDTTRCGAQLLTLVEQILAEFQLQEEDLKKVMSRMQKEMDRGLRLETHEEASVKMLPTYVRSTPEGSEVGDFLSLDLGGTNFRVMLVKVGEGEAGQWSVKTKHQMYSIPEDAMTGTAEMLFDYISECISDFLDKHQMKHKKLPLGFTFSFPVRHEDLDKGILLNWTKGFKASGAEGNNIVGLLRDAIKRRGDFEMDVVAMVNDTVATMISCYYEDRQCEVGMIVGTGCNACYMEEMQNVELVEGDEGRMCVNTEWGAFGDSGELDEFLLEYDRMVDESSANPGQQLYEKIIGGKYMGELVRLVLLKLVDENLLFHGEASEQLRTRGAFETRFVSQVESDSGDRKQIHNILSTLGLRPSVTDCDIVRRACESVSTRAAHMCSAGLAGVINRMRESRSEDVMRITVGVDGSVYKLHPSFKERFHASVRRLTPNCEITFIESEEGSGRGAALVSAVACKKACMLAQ
# Experimental: Male Wistar rats starved overnight were given 2 g/kg D-glucose orally. Simultaneously, 0.2 g/kg D-psicose, D-fructose or a mixture of D-psicose and D-fructose at 1:3 were given orally. Thirty minutes later, the rats were perfused and fixed with 4% para-formaldehyde under anesthesia, from which liver was immediately resected to prepare frozen sections. The distribution of glucokinase in the nucleus and the cytoplasm was analyzed with the fluorescence antibody method using an anti-glucokinase antibody. Simultaneously, blood was drawn out from the tail vein and the portal vein, to assay blood glucose levels.
# glucokinase [3] = biological target: T1, glucokinase; assay: Hepatic glucokinase transfer from nucleus to cytoplasm in Goto-Kakizaki rats (type 2 diabetes model); type: in vivo
# Experimental: The action of suppressing blood glucose increase with D-fructose at a low concentration was examined. To Goto-Kakizaki rats as a model animal of type 2 diabetes mellitus, D-glucose to 2 g/[…] or D-glucose to 2 g/l kg body weight+D-fructose to 0.2 g/1 kg body weight was administered orally, to examine the modification of glucokinase transfer from the nucleus to the cytoplasm in hepatocytes and the change of the blood glucose levels in the portal vein and the tail vein.
# 2 g/kg D-glucose is orally given to male Goto-Kakizaki rats starved overnight. Simultaneously, 0.2 g/kg D-psicose was orally given. Thirty minutes later and 60 minutes later, the rats were perfused and fixed with 4% para-formaldehyde under anesthesia, from which liver was immediately resected to prepare frozen sections. The distribution of hepatic glucokinase in nucleus and cytoplasm was analyzed with the fluorescence antibody method using an anti-glucokinase antibody. Simultaneously, blood was drawn out from the tail vein and the portal vein, to assay blood glucose level and insulin concentration. Herein, liver is divided in the portal vein region and the central vein region of liver. It has been known that the activity of glucokinase in the central vein region is higher by 1.3 fold to 1.5 fold than the activity thereof in the portal vein region. Therefore, the glucokinase distributions in the nucleus and the cytoplasm in the central vein region and the portal vein region were analyzed.
# hepatocytes [4] = assay: Lactic acid generation in hepatocytes; type: cell-based, rat; settings: MEM culture medium containing 5 mM or 25 mM D-glucose
# Experimental: […] As a control, DMSO was added.
# as §1
# glucokinase [5] = biological target: T1, glucokinase; assay: Glucokinase distribution in primary hepatocytes with D-glucose and D-fructose (fluorescence antibody method); type: cell-based
# Experimental: In the presence of 5 mM D-glucose, glucokinase mainly existed in the cell nucleus.
# as §1
# [6] = 2 g/kg D-glucose oral alone, 30 and 60 minutes, vs starved
compound,measurement,setting,value
O=C[C@H](O)[C@@H](O)[C@H](O)[C@H](O)CO [D-glucose],glycogen synthesis,hepatocytes [1],increased
same,glucokinase transfer from the nucleus to the cytoplasm in hepatocytes,glucokinase [2],glucokinase transfer from the nucleus to the cytoplasm occurred slightly
same,glucokinase fluorescence in the cytoplasm (liver),glucokinase [3]; [6],fluorescence in the cytoplasm was inversely increased
same,glucokinase fluorescence in the nucleus (liver),glucokinase [3]; [6],Fluorescence in the nucleus was reduced
same,glucokinase transfer from the nucleus to the cytoplasm in hepatocytes,glucokinase [3]; oral D-glucose alone,glucokinase transferred from the nucleus to the cytoplasm
same,cytoplasmic glucokinase level (fluorescence intensity analysis),"glucokinase [3]; oral D-glucose vs 24-hour fasting, central vein and portal vein regions",significantly increased
same,lactic acid generation,hepatocytes [4],increased
same,cytoplasmic glucokinase,"glucokinase [5]; 25 mM D-glucose, 37° C. for 30 minutes, vs 5 mM D-glucose",the cytoplasmic glucokinase was increased
same,glucokinase transfer from nucleus to cytoplasm,glucokinase [5]; MEM culture medium containing 5 mM or 25 mM D-glucose,increased
